Measured values published in patent publication US6727237B2, “Inhibitors of bacterial NAD synthetase” (priority 1998, dated 2004).
Values after ≈ are worked out from the molar mass of the structure shown. Like-named read-outs stand apart in the source and are kept apart here.

Assays:
[1] = system: Staphylococcus epidermitis; assay: Dose response of bacterial growth inhibition, MIC85; settings: for MIC: Staphylococcus, read-out: MIC85; for MIC85: minimum inhibitory concentration to achieve 85% inhibition, S. epidermitis
[2] = system: Staphylococcus epidermitis; assay: Bacterial growth inhibition screen in LB media (absorbance 595 nm), percent inhibition; settings: for inhibition of growth at 100 µM / inhibition of growth at 10 µM: Staphylococcus, read-out: % Inhibition, S. epidermitis; for % Inhibition: S. epidermitis
[3] = system: B. subtilis; assay: Dose response of bacterial growth inhibition, MIC85; settings: Bacillus subtilis, read-out: MIC85
[4] = target: T1, bacterial NAD synthetase enzyme (Bacillus subtilis, UniProt P08164); assay: biochemical; type: biochemical; settings: for Km: 0.2 mL Assay (microtiter plate), substrate
T1 sequence (P08164 2-272 limits assumed): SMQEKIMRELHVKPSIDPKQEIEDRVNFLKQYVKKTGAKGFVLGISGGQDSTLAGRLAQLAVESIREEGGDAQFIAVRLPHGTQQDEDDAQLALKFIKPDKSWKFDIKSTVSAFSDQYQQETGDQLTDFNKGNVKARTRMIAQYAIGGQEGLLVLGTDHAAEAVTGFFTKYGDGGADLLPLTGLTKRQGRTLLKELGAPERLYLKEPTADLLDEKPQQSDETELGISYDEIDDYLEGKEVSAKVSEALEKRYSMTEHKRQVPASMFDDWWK

[5] = system: K562 human myeloid cell line; assay: In vitro toxicity in human cells, propidium iodide flow cytometry, minimum toxic concentration
Description: The final concentration of DMSO was less than 5%, and a DMSO control was included. The mixtures were incubated at doubling dilutions (approximately 1000 μM-10 μM range) of inhibitor for 15 hours at 37° C. At this time propidium iodide was added (1 μg/mL) and the mixture incubated at 30 min. at 4° C. The cells were washed once with medium, centrifuged, and resuspended in 2% bovine serum albumin/phosphate-buffered saline. The cell suspension was then run through a FAC Saliber flow cytometer and approximately 5000 cells were counted. The proportion of dead (stained) cells was determined, and the percent of live cells was expressed as % controls.

[6] = system: Streptococcus pneumonia D39; assay: Standard antibiotic paper disk assay, zone of inhibition; type: cell-based, Streptococcus pneumoniae; settings: 250 μg on 6 or 7 mm paper disk; blood agar plate; gram +
Description: (§1) To determine initially if a compound found active in the assays, Compound 864, was also an effective inhibitor of a variety of different bacteria, a standard antibiotic assay was performed. In this assay 250 μg of Compound 864 ([…] in DMSO) was spotted on 6 or 7 mm paper disks. Each disk was placed on separate 30 ml solid-medium plates layered with bacteria Blood agar plates were used for Streptococcus, and minimal-glucose plates were used for the other microorganisms in Table 306. DMSO controls provided negative results.

[7] = system: Bacillus subtilis A700; assay: as above; type: cell-based; settings: 250 μg on 6 or 7 mm paper disk; minimal-glucose plate; gram +
Description: as §1

[8] = system: Salmonella typhimurium LT2 TT366; assay: as above; type: cell-based; settings: 250 μg on 6 or 7 mm paper disk; minimal-glucose plate; gram −
Description: as §1

[9] = system: Escherichia coli K-12 W3110 (CGSC#4474); assay: as above; type: cell-based; settings: 250 μg on 6 or 7 mm paper disk; minimal-glucose plate; gram −
Description: as §1

[10] = system: Streptococcus pneumoniae WU2; assay: as above; type: cell-based; settings: 250 μg on 6 or 7 mm paper disk; blood agar plate; gram +
Description: as §1

[11] = system: Escherichia coli K-12 MG1655 (CGSC#6300); assay: as above; type: cell-based; settings: 250 μg on 6 or 7 mm paper disk; minimal-glucose plate; gram −
Description: as §1

[12] = target: T1, bacterial NAD synthetase enzyme; settings: 2 mL Assay (cuvette); substrate; double reciprocal plots
[13] = substrate: Nc1ncnc2c1ncn2[C@@H]1O[C@H](COP(=O)(O)OP(=O)(O)OP(=O)(O)O)[C@@H](O)[C@H]1O; assay: purified protein, by the assay type; settings: substrate, pH 8.5
[14] = K562 human myeloid cells, 15 hours at 37° C., propidium iodide
[15] = compound at 0.2 mM (Table 312A)
[16] = lead compounds (Table 318A), read-out: IC 50
[17] = other: 2 mL Assay (cuvette), double reciprocal plots

COC(=O)c1cc2cc(OCc3ccccc3)ccc2n1CCCCCCCCC[n+]1ccccc1 [Compound 230]
MIC [1]: 3 µM
inhibition of growth at 100 µM ([2]; concentration screened 100 uM): 95.5%
MIC [3]: 10 µM
inhibition at 100 µM [4]: 93.1%

COC(=O)C=Cc1cn(CCCCCCCCC[n+]2cccc(C(=O)OC)c2)c2ccccc12 [Compound 270]
MIC [1]: 10 µM
inhibition of growth at 10 µM ([2]; concentration screened 10 uM): 97.5%
IC50 [4]: 60 µM
Minimum Toxic Dose ([5]; human, 15 h): 200 µM

O=C(O)C=Cc1cn(CCCCCCCCC[n+]2cccc(C(=O)[O-])c2)c2ccccc12 [Compound 274]
Minimum Toxic Dose [5, 14]: 300 µM

Fc1cc(F)c2[nH]c(CCCC[n+]3cccc4ccccc43)cc2c1 [Compound 409]
% Inhibition ([2]; concentration screened 10 uM): 2.44%
% Inhibition [4, 15]: 19.02%
Minimum Toxic Dose [5, 14]: 200 µM

C[N+](C)(C)c1ccc(CC(=O)OCCCCn2ccc3cc(OCc4ccccc4)ccc32)cc1 [Compound 745]
MIC [1]: 30 µM
inhibition of growth at 10 µM ([2]; concentration screened 10 uM): 95.1%
IC50 [4]: 85 µM
inhibition at 200 µM [4]: 85.4%

C[N+](C)(C)c1ccc(CC(=O)OCCCCCn2ccc3cc(OCc4ccccc4)ccc32)cc1 [Compound 746]
MIC [1]: 10 µM
inhibition of growth at 10 µM ([2]; concentration screened 10 uM): 96.8%
IC50 [4]: 50 µM
inhibition at 100 µM [4]: 91.3%

C[N+](C)(C)c1ccc(CC(=O)OCCCCCCn2ccc3cc(OCc4ccccc4)ccc32)cc1 [Compound 747]
MIC [1]: 10 µM
inhibition of growth at 10 µM ([2]; concentration screened 10 uM): 97.9%
IC50 [4]: 70 µM
inhibition at 100 µM [4]: 97.8%

C[N+](C)(C)c1ccc(CC(=O)OCCCCCCCn2ccc3cc(OCc4ccccc4)ccc32)cc1 [Compound 748]
MIC [1]: 10 µM
inhibition of growth at 100 µM ([2]; concentration screened 100 uM): 98.4%
inhibition at 100 µM [4]: 98.4%
IC50 [4, 16]: 30 µM

C[N+](C)(C)c1ccc(CC(=O)OCCCCCCCCn2ccc3cc(OCc4ccccc4)ccc32)cc1 [Compound 749]
MIC [1]: 10 µM
inhibition of growth at 100 µM ([2]; concentration screened 100 uM): 98.7%
MIC [3]: 3 µM
IC50 [4]: 25 µM
inhibition at 100 µM [4]: 98.2%

C[n+]1cccc(C(=O)OCCCCCn2ccc3cc(OCc4ccccc4)ccc32)c1 [Compound 766]
MIC [1]: 30 µM
inhibition of growth at 10 µM ([2]; concentration screened 10 uM): 90.5%
IC50 [4]: 65 µM
inhibition at 100 µM [4]: 91.2%

C[n+]1cccc(C(=O)OCCCCCCn2ccc3cc(OCc4ccccc4)ccc32)c1 [Compound 767]
MIC [1]: 10 µM
inhibition of growth at 100 µM ([2]; concentration screened 100 uM): 91.8%
IC50 [4]: 60 µM
inhibition at 100 µM [4]: 96%

C[n+]1cccc(C(=O)OCCCCCCCn2ccc3cc(OCc4ccccc4)ccc32)c1 [Compound 768]
MIC [1]: 10 µM
inhibition of growth at 100 µM ([2]; concentration screened 100 uM): 96.1%
IC50 [4]: 30 µM
inhibition at 100 µM [4]: 98.6%

C[n+]1cccc(C(=O)OCCCCCCCCn2ccc3cc(OCc4ccccc4)ccc32)c1 [Compound 769]
MIC [1]: 10 µM
inhibition of growth at 100 µM ([2]; concentration screened 100 uM): 95.9%
MIC [3]: 3 µM
inhibition at 100 µM [4]: 98.3%
IC50 [4, 16]: 20 µM

O=C(OCCCCCn1ccc2cc([N+](=O)[O-])ccc21)c1cnc2ccccc2c1 [Compound 831]
MIC85 [1]: 30 µM (≈ 12.1 µg/mL)
% Inhibition ([2]; concentration screened 10 uM): 84.68%
% Inhibition ([4]; compound at 0.1 mM (Table 314)): 26.21%

C[n+]1cc(C(=O)OCCCCCCn2ccc3cc([N+](=O)[O-])ccc32)cc2ccccc21 [Compound 832]
MIC [1]: 30 µM
inhibition of growth at 10 µM ([2]; concentration screened 10 uM): 94.7%
IC50 [4]: 90 µM
inhibition at 100 µM [4]: 78.6%

CN(C)c1ccc(CC(=O)OCCCCCCCCCn2ccc3cc([N+](=O)[O-])ccc32)cc1 [Compound 853]
MIC85 [1]: 30 µM (≈ 14 µg/mL)
% Inhibition ([2]; concentration screened 10 uM): 98.58%
% Inhibition ([4]; compound at 0.1 mM (Table 314)): 73.46%
IC50 [4, 16]: 45 µM

C[n+]1cccc(C(=O)OCCCCCn2ccc3cc([N+](=O)[O-])ccc32)c1 [Compound 864]
ZONE OF INHIBITION [6]: 12 mm
% Inhibition ([2]; concentration screened 100 uM): 87.03%
% Inhibition [4, 15]: 19.33%
ZONE OF INHIBITION [7]: 19.5 mm
ZONE OF INHIBITION [8]: 10 mm
ZONE OF INHIBITION [9]: 9.5 mm
ZONE OF INHIBITION [10]: 15 mm
ZONE OF INHIBITION [11]: 9.5 mm

CC(=O)c1ccc2[nH]c(CCCCCCCCOC(=O)Cc3ccc[n+](C)c3)cc2c1 [Compound 939]
IC50 [4]: 25 µM
inhibition at 250 µM [4]: 97.8%
Minimum Toxic Dose ([5]; human, 15 h): 500 µM

COC(=O)c1cc2ccccc2n1CCCCCCOC(=O)c1cccnc1 [Compound 947]
Minimum Toxic Dose [5, 14]: 200 µM

COC(=O)c1cc2ccccc2n1CCCCCCCOC(=O)c1cccnc1 [Compound 948]
% Inhibition ([4]; compound at 0.05 mM): 2.52%
Minimum Toxic Dose [5, 14]: 200 µM

COC(=O)c1cc2ccccc2n1CCCCCCCCOC(=O)c1cccnc1 [Compound 949]
Minimum Toxic Dose [5, 14]: 200 µM

COC(=O)c1cc2cc(OCc3ccccc3)ccc2n1CCCCCCOC(=O)c1cccnc1 [Compound 951]
Minimum Toxic Dose [5, 14]: 500 µM

COC(=O)c1cc2cc(OCc3ccccc3)ccc2n1CCCCCCCCOC(=O)c1cccnc1 [Compound 953]
Minimum Toxic Dose [5, 14]: 100 µM

COC(=O)c1cc2cc(OCc3ccccc3)ccc2n1CCCCCCCOC(=O)c1ccc[n+](C)c1 [Compound 976]
MIC [3]: 10 µM
IC50 [4]: 20 µM
inhibition at 100 µM [4]: 71%

COC(=O)c1cc2cc(OCc3ccccc3)ccc2n1CCCCCCCCOC(=O)c1ccc[n+](C)c1 [Compound 977]
MIC [3]: 10 µM
IC50 [4]: 10 µM
inhibition at 100 µM [4]: 87.6%

COC(=O)c1cc2ccccc2n1CCCCCCCOC(=O)Cc1ccc([N+](C)(C)C)cc1 [Compound 984]
MIC [3]: 30 µM
IC50 [4]: 20 µM
inhibition at 50 µM [4]: 87.5%

COC(=O)c1cc2ccccc2n1CCCCCCCCOC(=O)Cc1ccc([N+](C)(C)C)cc1 [Compound 985]
MIC [3]: 10 µM
IC50 [4]: 15 µM
inhibition at 50 µM [4]: 92.1%

COC(=O)c1cc2ccccc2n1CCCCCCCCCOC(=O)Cc1ccc([N+](C)(C)C)cc1 [Compound 986]
MIC [3]: 10 µM
inhibition at 50 µM [4]: 30.8%
IC50 [4, 16]: 10 µM

COC(=O)c1cc2cc(OCc3ccccc3)ccc2n1CCCCCCCOC(=O)Cc1ccc([N+](C)(C)C)cc1 [Compound 988]
MIC [3]: 10 µM
inhibition at 100 µM [4]: 84.3%

COC(=O)c1cc2cc(OCc3ccccc3)ccc2n1CCCCCCCCCOC(=O)Cc1ccc([N+](C)(C)C)cc1 [Compound 990]
MIC [3]: 10 µM
IC50 [4]: 20 µM
inhibition at 200 µM [4]: 92.2%

[Mg+2] [Mg^+2, magnesium]
Km [12]: 2600 µM
Vmax [12]: 120 nM/s
Km [4]: 2900 µM

N [NH3, ammonia]
Km [12]: 2880 µM
Vmax [12]: 137 nM/s

Nc1ncnc2c1ncn2[C@@H]1O[C@H](COP(=O)(O)OP(=O)(O)OC[C@H]2O[C@@H]([n+]3cccc(C(=O)O)c3)[C@H](O)[C@@H]2O)[C@@H](O)[C@H]1O [NaAD, nictonic acid dinucleotide, reference compound]
Km [12]: 75 µM
Vmax [12]: 286 nM/s
Km [4]: 76 µM

B1: bacterial NAD synthetase enzyme (Bacillus subtilis subsp. subtilis str. 168) (protein)
chain: T1 sequence (P08164 2-272 limits assumed)
Km ([13]; other: 0.2 mL Assay (microtiter plate)): 152 µM
Km [13, 17]: 120 µM
Vmax [13, 17]: 436 nM/s
